Test results as given in patent US20240156901A1, “GAL3BP POLYPEPTIDE COMPOSITIONS AND METHODS FOR TREATMENT OF CANCER AND DETERMINING TREATMENT RESPONSIVENESS” (UNIVERSITY OF PITTSBURGH-OF THE COMMONWEALTH SYSTEM OF …, priority 2021, published 2024).

How the values were obtained:
CHI3L1 secretion = test: ELISA of secreted CHI3L1 in conditioned medium of GBM neurosphere lines; format: cell-based, human; conditions: two GBM neurosphere lines
Protocol: Secreted CHI3L1 protein in the cell culture supernatant was measured by using the Quantikine Human CHI3L1 Immunoassay (R&D Systems, Cat #DC3L10). CHI3L1 content in the conditioned media was quantified per million cells and no CHI3L1 was detected in DMEM or NSC medium supplemented with EGF and bFGF.

Gal3-CHI3L1 interaction = Gal3-CHI3L1 interaction (Homo sapiens, UniProt P17931); conditions: TS603-V5-CHI3L1 cells; 10 μM for 24 hours
Gal3-CHI3L1 interaction, sequence (P17931 2-250 limits assumed): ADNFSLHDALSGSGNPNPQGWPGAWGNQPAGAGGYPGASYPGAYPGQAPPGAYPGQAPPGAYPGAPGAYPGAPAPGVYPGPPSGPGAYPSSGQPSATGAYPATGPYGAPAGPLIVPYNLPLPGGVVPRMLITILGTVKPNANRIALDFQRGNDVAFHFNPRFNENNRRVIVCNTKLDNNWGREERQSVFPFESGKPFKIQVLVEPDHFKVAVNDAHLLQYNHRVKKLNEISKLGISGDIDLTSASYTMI
Gal3-CHI3L1 interaction, sequence (P36222 22-383 partner): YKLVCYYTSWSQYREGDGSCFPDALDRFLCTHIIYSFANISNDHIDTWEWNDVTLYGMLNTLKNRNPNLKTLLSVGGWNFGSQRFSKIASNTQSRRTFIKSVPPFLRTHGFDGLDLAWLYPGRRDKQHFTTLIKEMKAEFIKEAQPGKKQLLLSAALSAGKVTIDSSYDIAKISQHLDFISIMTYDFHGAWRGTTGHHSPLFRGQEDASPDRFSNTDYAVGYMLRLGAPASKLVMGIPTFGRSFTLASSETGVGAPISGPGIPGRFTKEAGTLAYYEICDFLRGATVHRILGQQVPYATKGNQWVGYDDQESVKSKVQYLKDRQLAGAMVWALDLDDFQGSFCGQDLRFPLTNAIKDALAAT
Protocol: (§1) TS603 cells overexpressing CHI3L1 with V5 tag (TS603 CHI3L1_V5_OE) or THP-1 cells treated with the peptides were collected and protein-protein interaction was crosslinked with 2 mM Dithiobis (succinimidyl propionate, DSP). Membrane proteins were extracted with the Membrane Protein Extraction Kit (ThermoFisher, Cat #89842) and ˜500 μg of protein was used for Co-IP assay by the Co-Immunoprecipitation Kit (ThermoFisher, Cat #26149). For mass spectrometry, 10 μg of each of the TS603 CHI3L1_V5_OE Co-IP samples were separated in a 12% SDS-PAGE gel and analyzed by MS at the University of Pittsburgh Biomedical MS Center.
(§2) To confirm Co-IP experiments in TS603 cells by immunoblotting, the magnetic beads of protein G (Bio-Rad, Cat #161-4023) were used following the manufacturer's protocol. […] For in vivo THP-1 cell or in vitro recombinant protein Co-IP experiments, additional following antibodies were used: Mouse anti-CHI3L1 (Santa Cruz Biotechnology, Cat #SC-393590), Rat anti-Galectin-3 (Santa Cruz Biotechnology, Cat #SC-23938), anti-Galectin-3BP (Santa Cruz Biotechnology, Cat #SC-374541), Rabbit anti-CHI3L1 (Cell Signaling Technology, Cat #47066), and Rat IgG (BioXCell, Cat #BE0090).

Gal3-Gal3BP interaction = Gal3-Gal3BP interaction (Homo sapiens, UniProt P17931); conditions: TS603-V5-CHI3L1 cells; 10 μM for 24 hours
Gal3-Gal3BP interaction, sequence (P17931 2-250 limits assumed): as the sequence (P17931 2-250 limits assumed) above
Gal3-Gal3BP interaction, sequence (P36222 22-383 partner): as the sequence (P36222 22-383 partner) above
Protocol: as §1, §2

[1] = system: GL261-CHI3L1 orthotopic tumors; test: Peptide treatment of GL261-CHI3L1 orthotopic tumors (MRI, survival); conditions: C57BL/6 mice bearing GL261-CHI3L1 orthotopic tumors; 20 μM peptide into brain tumor via guide screw
Protocol: Male and female ICR SCID and C57BL/6 mice (4-6 weeks of age) were purchased from Taconic Biosciences and The Jackson Laboratory, respectively. The intracranial xenograft tumor models were established as previously described (Hu B et al., 2016). Cells in 5 μL DPBS were injected at the following numbers: TS543 vector control or CHI3L1 overexpression (OE), 1×10^4 cells; QPP7 scrambled control or CHI3L1 knockdown (KD), 1×10^5 cells; and GL261 vector control or CHI3L1 OE, 1×10^5 cells. […] For mice treated with peptides, 5 uL of 20 uM SCP or GMP was delivered into the mouse brain every 4 days with a total of seven times.
MRI and bioluminescent imaging of mice were performed at Rangos Research Center Animal Imaging Core. The tumor size of mice detected by MRI was analyzed with ITK-SNAP.
For intracranial xenograft tumor models treated with peptides, mice were implanted with a guide screw prior to intracranial injection. To install the screw, mice were anesthetized by intraperitoneal (IP) injection with ketamine/xylazine solution (1.75 mL of 100 mg/mL ketamine and 0.25 mL of 100 mg/mL xylazine in 8 mL sterile water) at a dosage of 100 μL/20 g body weight. The screw was covered by sealing the skin, and mice were allowed to recover for one week before intracranial implantation. GL261 cells overexpressing CHI3L1 (1×10^5) were injected in 5 μL of DPBS containing 20 μM of either scrambled control peptide (SCP) or Gal3BP mimetic peptide (GMP). SCP (20 μM) or GMP (20 μM) was subsequently given once every 3 days with a total of seven times by intracranial injection via the guide screw.
All mice received general inhalation anesthesia with Isoflurane for in vivo brain imaging. […] Depth of anesthesia was monitored by toe reflex (extension of limbs, spine positioning) and respiration rate. […] Respiration was monitored using a pneumatic sensor placed between the animal bed and the mouse's abdomen, rectal temperature was measured with a fiberoptic sensor, and core temperature was maintained at 36.8±0.2° C. with a feedback-controlled warm air source (SA Instruments). […]

GL261-CHI3L1 glioma = test: Flow cytometry of immune cell populations in GL261-CHI3L1 glioma after peptide treatment; format: in vivo, mouse; conditions: tumors of C57BL/6 mice bearing GL261-CHI3L1
Protocol: Mice with neurological deficits or moribund appearance were sacrificed. Tumors were separated and homogenized for 15 min at 37° C. in Collagenase IV Cocktail (3.2 mg/mL collagenase type IV, 2 mg/mL soybean trypsin inhibitor, and 1.0 mg/mL deoxyribonuclease I; Worthington Biochemical). Red blood cells were lysed using ACK lysing buffer (Gibco). Cell suspensions were filtered through 70-μm strainers, centrifuged, and resuspended in cold FACS buffer (DPBS with 1% BSA) for further analysis.
About 3×10^6 cells were used for each staining panel. Cells were incubated with 1.0 μg of TruStain fcX (BioLegend) for 10 min on ice to block Fc receptors, followed by staining with the combination of indicated antibodies. After staining, cells were washed with FACS buffer three times and incubated with Fixation Buffer (BioLegend) at RT for 20 min. Cells were washed with FACS buffer, resuspended in Cyto-Last Buffer (BioLegend), and analyzed by either a BD LSRFortessa or BD FACSAria II SORP. For CyTOF, samples were prepared as described above for flow cytometry. Three pairs of samples (scrambled shRNA vs Chi3l1 KD) with similar tumor sizes were chosen and the staining procedure was followed as previously described (Mitsialis V, et al., 2020). The samples were analyzed on a Helios2 CyTOF system (Fluidigm) at the Longwood Medical Area CyTOF Core. Additional information about flow cytometry antibodies is provided in the Supplementary Material and Methods section.

[2] = system: bone-marrow derived macrophages (BMDMs); test: Scratch-wound healing assay, BMDM migration; format: cell-based, mouse; conditions: rCHI3L1 0.6 μg/mL; 6 hours
Protocol: (§3) BMDMs were isolated from male and female C57BL/6 mice as previously described (Ying W et al., 2013). Briefly, femur bones were isolated from mice, and IMDM (ATCC) supplemented with 10% FBS and P/S was used to flush the bone marrow into a petri dish. After 4-6-hour incubation, the floating cells were collected and resuspended in the medium with 20 ng/mL M-CSF (PrproTech). On day 6, the fully differentiated cells were designated as an M0 state. To induce BMDM polarization toward an M1 state, 100 ng/mL LPS (Invitrogen) and 50 ng/mL IFNγ (PrproTech) were added to the M0 cells for 24 hours. To induce BMDM polarization toward an M2 state, 20 ng/mL IL-4 (PrproTech) was added to the M0 cells for 72 hours.
(§4) BMDM were polarized to the indicated status (M0, M1, or M2) and seeded in 12-well plates at 80-90% confluency. The cells were switched to the medium without FBS for 6 hours of starvation. Scratches were made using pipettor tips and fresh IMDM with indicated recombinant proteins and/or peptides were added. Images of the scratches were captured at indicated times. For the SIM-A9 scratch-wound healing assay, 12-well plates were coated with 10 μg/mL fibronectin (Sigma-Aldrich) at 37° C. overnight before seeding cells.

[3] = system: bone-marrow derived macrophages (BMDMs); test: Transwell migration assay, BMDM migration; format: cell-based, mouse
Protocol: as §3
(§5) Polarized BMDMs were starved by removing FBS for 6 hours. Cells were collected and 2×10^5 cells in 200 μL of IMDM were added into each transwell insert (Millipore, Cat #MCMP24H48). 700 μL of IMDM containing 2% FBS and the indicated recombinant proteins was added to the bottom of the plates. After 14-hour incubation, transwell inserts were stained with HEMA 3 Stain Set (Fisher Scientific). Insert membranes were separated and mounted on glass slides with CYTOSEAL XYL (ThermoFisher) and images were taken by an inverted microscope (Leica DM 2500). For the SIM-A9 cells, the inserts were coated with 10 μg/mL fibronectin overnight in advance of seeding cells.

[4] = system: mouse microglial cell line (SIM-A9); test: Scratch-wound healing assay, microglial cell migration; format: cell-based; conditions: rCHI3L1 0.6 μg/mL, 6 hours
Protocol: as §4

[5] = system: microglial cell line (SIM-A9); test: Transwell migration assay, microglial cell migration; format: cell-based, mouse
Protocol: as §5

## Cn1c(=O)n(-c2ccc(C(C)(C)C#N)cc2)c2c3cc(-c4cnc5ccccc5c4)ccc3ncc21 [NVP-BEZ235]
CHI3L1 secretion
  CHI3L1 secretion in conditioned medium: decreased CHI3L1 secretion in a dose- and time-dependent manner

## Nc1cc(C(F)(F)F)c(-c2cc(N3CCOCC3)nc(N3CCOCC3)n2)cn1 [NVP-BKM120]
CHI3L1 secretion
  CHI3L1 secretion in conditioned medium: decreased CHI3L1 secretion in a dose- and time-dependent manner

## OC[C@H]1O[C@@H](S[C@@H]2O[C@H](CO)[C@H](O)[C@H](n3cc(-c4cccc(F)c4)nn3)[C@H]2O)[C@H](O)[C@@H](n2cc(-c3cccc(F)c3)nn2)[C@H]1O [TD139]
Gal3-CHI3L1 interaction
  Gal3-CHI3L1 interaction (Co-IP): not Gal3-CHI3L1 interactions
Gal3-Gal3BP interaction
  Gal3-Gal3BP interaction (Co-IP): completely disrupted

## L1RTRLEETLSSDTSH15 (LRTRLEETLSSDTSH) [SCP, scrambled control peptide, reference compound]
[1]
  median survival: 29 days
GL261-CHI3L1 glioma
  CD4+ cell population: 39.8±4.0%
GL261-CHI3L1 glioma; mean±SEM, P=0.0536
  M2-like TAMs: 52.7±3.9%
GL261-CHI3L1 glioma; mean±SEM, P=0.0719
  M1-like TAMs: 38.2±6.7%

## rCHI3L1: recombinant CHI3L1 protein
[2]
  M0 and M1 BMDM migration: not M0 and M1 BMDMs
  M2 BMDM migration: promoted M2 BMDM migration
[3]
  M2 BMDM migration: promoted cell migration in M2 BMDMs
[4]
  microglial cell migration: did not increase cell migration
[5]
  microglial cell migration: not in M0 BMDMs, M1 BMDMs, or microglial cells
